Consider 8 compounds from patent US11999727B2 (Tango Therapeutics, Inc., priority 2020, dated 2024).

Assay [1] has as its system HAP1 MTAP-deleted cell line. The experiment in a line: Viability assay, MTAP-deleted cell line. It is filed as cell-based. The conditions noted are these: Homo sapiens, HAP1, viability assay, HAP1 MTAP-deleted; read-out: HAP1 MTAP deleted viability. An excerpt:
Table 1 additionally indicates IC50 values in a viability assay for the MTAP-deleted cell line (column 10), indicating the effect of treatment with compound on cell survival.

Assay [2] addresses T1, PRMT5 (Homo sapiens, UniProt O14744).
T1 construct: purchased Viva (custom protein)
The experiment in a line: PRMT5 biochemical IC50 assay with MTA as cofactor. The conditions noted are these: PRMT5, MTA as cofactor; read-out: MTA IC50.

Assay [3] deals with HAP1 MTAP-intact cell line. The experiment in a line: SDMA in-cell western assay, HAP1 MTAP-intact. The class given is cell-based. The conditions noted are these: Homo sapiens, HAP1, SDMA in-cell western, HAP1 MTAP-intact; read-out: MTAP HAP1 intact IC50. An outline of the steps: (§1)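 MTAP-null vs endogenous-MTAP HAP1 isogenic cells; in-cell western SDMA readout; IC50 per line.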

The target in assay [4] is T1, PRMT5. The experiment in a line: PRMT5 biochemical IC50 assay with SAM as cofactor. The conditions noted are these: PRMT5, SAM as cofactor; read-out: SAM IC50.
Assay [5] has as its system HAP1 MTAP-deleted cell line. Nature of the assay: SDMA in-cell western assay, HAP1 MTAP-deleted. It is filed as cell-based. The conditions noted are these: for pIC50: Homo sapiens, HAP1, SDMA in-cell western, HAP1 MTAP-deleted, read-out: HAP1 MTAP deleted IC50; for MTAP intact/deleted ratio: IC50 ratio HAP1 MTAP-intact / HAP1 MTAP-deleted, SDMA in-cell western. An outline of the steps: as §1

Assay [6] has as its target T1, PRMT5. The experiment in a line: PRMT5 biochemical IC50 assay with no cofactor. The conditions noted are these: PRMT5, no cofactor; read-out: No Cofactor/rel IC50. The source says: Table 1 indicates IC50 values (μM) against PRMT5 for exemplary compounds in the presence of SAM as cofactor, with no cofactor, and with MTA as cofactor, respectively (columns 4-6). […] Ki values can be calculated from the IC50 values as described in the Examples section. As detailed in the Examples section, for the assay performed in the presence of SAM, IC50=Ki×1.5 (Ki=IC50/1.5).

pIC50: −log10 of the molar value.

T1 sequence (O14744 whole entry): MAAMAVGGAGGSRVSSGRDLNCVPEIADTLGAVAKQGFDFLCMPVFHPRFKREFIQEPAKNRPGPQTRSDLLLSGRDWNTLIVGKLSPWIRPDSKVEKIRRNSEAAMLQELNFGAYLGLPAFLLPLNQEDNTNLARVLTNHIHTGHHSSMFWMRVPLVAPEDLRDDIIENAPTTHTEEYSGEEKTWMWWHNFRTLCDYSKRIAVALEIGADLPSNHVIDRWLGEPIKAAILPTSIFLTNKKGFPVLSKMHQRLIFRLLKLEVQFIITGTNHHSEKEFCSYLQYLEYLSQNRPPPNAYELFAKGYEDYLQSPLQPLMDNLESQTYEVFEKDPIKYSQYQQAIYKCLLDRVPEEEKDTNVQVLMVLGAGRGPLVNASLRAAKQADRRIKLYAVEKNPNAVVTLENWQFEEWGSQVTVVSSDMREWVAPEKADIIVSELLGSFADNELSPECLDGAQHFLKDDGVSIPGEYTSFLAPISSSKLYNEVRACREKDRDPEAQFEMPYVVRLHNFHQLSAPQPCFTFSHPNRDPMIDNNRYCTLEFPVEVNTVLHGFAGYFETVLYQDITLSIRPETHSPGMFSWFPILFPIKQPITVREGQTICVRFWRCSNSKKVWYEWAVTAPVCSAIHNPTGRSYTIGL
T1 sequence (Q9BQA1 whole entry partner): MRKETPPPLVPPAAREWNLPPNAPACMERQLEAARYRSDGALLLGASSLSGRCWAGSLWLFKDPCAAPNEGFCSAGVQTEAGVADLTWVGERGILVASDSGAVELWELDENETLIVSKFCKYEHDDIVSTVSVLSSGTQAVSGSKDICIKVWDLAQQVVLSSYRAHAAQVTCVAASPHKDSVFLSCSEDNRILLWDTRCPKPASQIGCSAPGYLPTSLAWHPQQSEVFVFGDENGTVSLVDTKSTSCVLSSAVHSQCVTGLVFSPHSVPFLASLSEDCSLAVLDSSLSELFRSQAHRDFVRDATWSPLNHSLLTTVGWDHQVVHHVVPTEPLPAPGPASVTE

In the case of `Cc1cc(NC(=O)C(=O)N2C[C@@H](C)CC[C@@H]2c2ccc(N)nc2)cnc1N` (single isomer, unassigned) [Compound 860], the pIC50 was less than 5.00 in assay [1]; less than 6.30 in assay [2]; less than 6.00 in assay [3]; less than 6.30 in assay [4]; less than 6.00 in assay [5]; less than 6.30 in assay [6]. Also, the MTAP intact/deleted ratio entry in assay [5] is “B (an IC50 ratio greater than or equal to 3 fold but lower than 10 fold)”.

For the compound `CNc1nc2cc([C@H]3CC[C@H](C)CN3C(=O)C(=O)Nc3cncc(C(N)=O)c3)ccc2s1` (single isomer, unassigned) [Compound 862], the pIC50 in assay [1] is less than 5.00; in assay [2], less than 6.30; in assay [3], less than 6.00; in assay [4], less than 6.30; in assay [5] it was less than 6.00; in assay [6] it was less than 6.30. Also, the MTAP intact/deleted ratio entry in assay [5] is on record as “B (an IC50 ratio greater than or equal to 3 fold but lower than 10 fold)”.

Turning to `CNc1nc2cc([C@H]3CC[C@H](C)CN3C(=O)C(=O)Nc3cnc(OC)c(C(N)=O)c3)ccc2s1` (single isomer, unassigned) [Compound 863], the pIC50 in assay [1] was greater than 6.00; in assay [2], greater than 7.30; in assay [3], less than 6.00; in assay [4] it was 6.30 to 7.30; in assay [5] it was greater than 7.00; in assay [6], greater than 7.30. Also, the MTAP intact/deleted ratio result in assay [5] was “A (an IC50 ratio greater than or equal to 10 fold)”.

Take `CNc1ccc([C@@H]2CC[C@@H](C)CN2C(=O)C(=O)Nc2cnc(N)c(C)c2)cn1` (single isomer, unassigned) [Compound 864]: the pIC50 in assay [1] is greater than 6.00; in assay [2], greater than 7.30; in assay [3], 6.00 to 7.00; in assay [4], 6.30 to 7.30; in assay [5], greater than 7.00; in assay [6] it was greater than 7.30. Moreover, the MTAP intact/deleted ratio result in assay [5] is “B (an IC50 ratio greater than or equal to 3 fold but lower than 10 fold)”.

As to `CCc1cc(NC(=O)C(=O)N2C[C@H](C)CC[C@H]2c2ccc(NC)nc2)cnc1N` (single isomer, unassigned) [Compound 865], the pIC50 in assay [1] is greater than 6.00; in assay [2] it was greater than 7.30; in assay [3], 6.00 to 7.00; in assay [4], 6.30 to 7.30; in assay [5], greater than 7.00; in assay [6], greater than 7.30. Moreover, the MTAP intact/deleted ratio result in assay [5] was “A (an IC50 ratio greater than or equal to 10 fold)”.

Regarding `CCc1cc(NC(=O)C(=O)N2C[C@H](C)CC[C@H]2c2ccc(NS(C)(=O)=O)cc2)cnc1N` (single isomer, unassigned) [Compound 866], the pIC50 is less than 5.00 in assay [1]; less than 6.30 in assay [2]; less than 6.00 in assay [3]; less than 6.30 in assay [4]; less than 6.00 in assay [5]; less than 6.30 in assay [6]. Moreover, the MTAP intact/deleted ratio result in assay [5] is given as “C (an IC50 ratio of less than 3 fold)”.

For `C[C@@H]1CC[C@@H](c2cc3[nH]ncc3s2)N(C(=O)C(=O)Nc2cncc(C(N)=O)c2)C1` (single isomer, unassigned) [Compound 868, 5-(2-(5-methyl-2-(1H-thieno[3,2-c]pyrazol-5-yl)piperidin-1-yl)-2-oxoacetamido)nicotinamide], the pIC50 in assay [1] is less than 5.00; in assay [2] it was less than 6.30; in assay [3], less than 6.00; in assay [4], less than 6.30; in assay [5], less than 6.00; in assay [6] it was less than 6.30. In addition, the MTAP intact/deleted ratio result in assay [5] was “C (an IC50 ratio of less than 3 fold)”.

Consider `C[C@H]1CC[C@H](c2cc3[nH]ncc3s2)N(C(=O)C(=O)Nc2cncc(C(N)=O)c2)C1` (single isomer, unassigned) [Compound 873, 5-(2-(5-methyl-2-(1H-thieno[3,2-c]pyrazol-5-yl)piperidin-1-yl)-2-oxoacetamido)nicotinamide], for which the pIC50 in assay [1] is greater than 6.00; in assay [2], greater than 7.30; in assay [3] it was less than 6.00; in assay [4] it was 6.30 to 7.30; in assay [5] it was greater than 7.00; in assay [6] it was 6.30 to 7.30. The MTAP intact/deleted ratio entry in assay [5] is given as “A (an IC50 ratio greater than or equal to 10 fold)”.
